# Publication PMC12081877 (Nature Communications, 2025)
# Experiments:
# [1] = test system: ISM3312 P18 virus; type: cell-based, SARS-CoV-2
# [2] = test system: a panel of M^pro mutants; type: biochemical, SARS-CoV-2
Compound,resistance level against the ISM3312 P18 virus [1],resistance level [2]
CC(C)(C)[C@H](NC(=O)C(F)(F)F)C(=O)N1C[C@H]2[C@@H]([C@H]1C(=O)N[C@H](C#N)C[C@@H]1CCNC1=O)C2(C)C [Nirmatrelvir],"no resistance (key: white, no resistance ( < threefold); light blue, low-level resistance (3- to 10-fold); Medium blue, moderate-level resistance (10- to 50-fold); dark blue, high-level resistance ( > 50-fold))",–
Cn1cnc(Cn2c(=O)[nH]/c(=N\c3cc4cn(C)nc4cc3Cl)n(Cc3cc(F)c(F)cc3F)c2=O)n1 [Ensitrelvir],–,moderate- to high-levels resistance
